# Test results as given in PubChem BioAssay AID1996.
# Details: buffer; pH 7.4; 200.0 µM
row,SMILES,solubility kinetic [µg/mL]
1,CCOc1ccc(NC(=O)COC(=O)CC2CCCCC2)cc1,26.6
2,CC(NCc1ccccc1)c1ccccc1O (stereo unspecified),27.2
3,CCN1CCN(C(=O)C(Cc2ccccc2)NC(=O)c2ccc(Cl)c(S(=O)(=O)N(C)C)c2)CC1 (stereo unspecified),> 76.1
4,CC1CCCCN1C(C(=O)O)c1ccccc1.Cl (stereo unspecified),> 40.5
5,CCC(C)NC(=O)Cn1c(=O)sc2ccccc21 (stereo unspecified),33.6
6,NC(=O)NCC(c1ccccc1)C1CCCCC1 (stereo unspecified),33.4
7,CC(OC(=O)c1cc(S(=O)(=O)N2CCOCC2)ccc1F)C(=O)NCC1CCCCC1 (stereo unspecified),> 68.5
8,CCOc1ccc(S(=O)(=O)N2CCOCC2)cc1[N+](=O)[O-],> 47.4
9,CCCCn1c(N)c(N(CCOC)C(=O)c2ccc3c(c2)C(=O)N(c2ccccc2Cl)C3=O)c(=O)[nH]c1=O,> 81
10,O=C(/C=C/c1ccco1)Nc1scc(-c2ccccc2)c1C(=O)O,48.9
11,CN(c1ccccc1)c1ncccn1,14.2
12,O=C(CC(=O)NCCc1ccccc1)NCCc1ccccc1,> 46.6
13,Cc1ccccc1NC(=O)CCl,26.2
14,CCCc1nc2oc3ccccc3c(=O)c2c(=O)n1CCCOC,> 49.3
15,CN1CCN(NC(=O)c2ccc(Cl)s2)CC1,> 39
16,CCOC(=O)C1CCCN(S(=O)(=O)Cc2ccc(Cl)cc2)C1 (stereo unspecified),51

row,SMILES,solubility kinetic [µg/mL]
1,O=C(O)C(c1ccccc1)N1C(=O)c2ccccc2C1=O (stereo unspecified),40.7
2,COC(=O)CN1C(=O)COc2ccc(S(=O)(=O)NCc3ccccc3)cc21,58.3
3,O=C(O)C(=O)O.c1cncc(CNCCc2ccc3c(c2)OCO3)c1,> 52
4,N#Cc1ccccc1OCC(=O)C1CC1,28.4
5,CC(C)CCN1CCN(Cc2nc3ccccc3s2)CC1CCO (stereo unspecified),> 52.1
6,O=C(Nc1ccccc1)N(C1=NCCC1)c1ccccc1,5.4
7,Nc1ccccc1C(=O)N1CCc2ccccc21,> 35.7
8,O=C(NC1CCCc2ccccc21)C1CCCC1 (stereo unspecified),27.3
9,O=[N+]([O-])c1ccc(N2CCN(c3ccccn3)CC2)c(Cl)c1,0.8
10,CC(CCc1ccccc1)NC(=O)COC(=O)c1cccs1 (stereo unspecified),> 47.6
11,Nc1ccccc1C(=O)N1CCCC1,> 28.5
12,C#CCN1CCN(c2cccc(C(F)(F)F)c2)CC1,9.8
13,CCCn1nc(C(=O)NC2CCCC2)c2ccccc2c1=O,> 44.9
14,CC1CCCC(C)N1C(=O)COC(=O)c1ccc([N+](=O)[O-])o1 (stereo unspecified),> 46.5
15,CC(C)OC(=O)/C(=C\c1cccnc1)NC(=O)c1ccccc1,> 46.6
16,O=C(COC(=O)CCC(=O)c1ccc(F)cc1)NCc1ccccc1Cl,> 56.7

# Other lines, results leading:
row,solubility kinetic [µg/mL],SMILES
1,> 46.7,O=C(O)CC1(CC(=O)Nc2ccc(F)cc2F)CCCCC1
2,2,Cc1cnc(NC(=O)Cc2ccc(C)c(C)c2)s1
3,> 50.5,Cc1cccc(NC(=O)Nc2c(C)n(C)n(-c3ccccc3)c2=O)c1
4,39.6,O=C(NCCCn1ccnc1)c1cc(-c2cccc(O)c2)on1
5,5.9,CC(=O)Nc1ccc(-c2csc(-c3cccnc3)n2)cc1
6,2.1,NC(=O)c1ccccc1NC(=O)Nc1ccc(F)c(Cl)c1
7,3.1,CSc1ccccc1C(=O)Nc1nc2ccccc2[nH]1
8,> 47.3,Cc1cc(C(F)(F)F)c2c(N)c(C(=O)NC3CC3)sc2n1
9,9.2,Cc1cc(C)cc(NC(=S)N2CCN(c3ccccn3)CC2)c1
10,45.4,COc1cc(C(NC=O)C(=O)Nc2c(C)cccc2C)ccc1O (stereo unspecified)
11,42.3,COc1ccc(C(=O)Cn2cnc3ccccc3c2=O)cc1OC
12,1.5,Cc1ccccc1S(=O)(=O)c1cc2ccccc2nc1N
13,1.7,Cc1cc(C)nc(NC(=S)Nc2ccc(F)cc2F)c1
14,5,Cc1onc(-c2c(F)cccc2Cl)c1C(=O)N=C(N)N1CCCC1
15,3.4,O=C(NC(=S)Nc1ccc(Cl)cc1)c1cncc(Br)c1
16,> 56.8,Cc1cccc(C)c1NC(=O)[C@@]1(CC(=O)O)CC(/C=C/c2ccccc2)=NO1
17,< 0.2,Cc1cc2nc(=O)c(/C=C3\C=Nc4ccccc43)c(N)n2o1
18,> 48.4,O=C(COc1ccccc1)Nc1cc2c3c(c1)CC(=O)N3CCC2
19,> 35.9,CCC(=O)NNc1nc2c(F)cccc2s1
20,> 46.7,O=C(CSc1nccc(=O)[nH]1)Nc1cccc2ccccc12
21,8.1,Cc1cc2oc(=O)cc(CN3CCCCC3C)c2cc1C(C)C (stereo unspecified)
22,4.3,COC(=O)c1cc(CSc2ncnc3sccc23)oc1C
23,14,CCC1(C)CC(=O)N(c2ccc(F)c(Cl)c2)C(=O)C1
24,3.3,Cc1csc(Nc2nc(N)c(C(=O)Nc3ccccc3)o2)n1
25,41.1,O=C(Nc1sc2c(c1C(=O)O)CCC2)c1ccccc1Cl
26,3,Cc1ccc(S(=O)(=O)N2CCN(c3ccccc3)CC2)c(C)c1
27,34.5,CC(=O)c1cc(C(=O)Nc2ccc3ccccc3c2)c(C)o1
28,1.4,O=C(NC(=S)NCc1ccc(Cl)cc1Cl)c1ccco1
29,5.7,COc1ccc(CNc2nc3ccccc3n2C(C)C)cc1
